Source: US20140271573A1, “PHARMACO-CELLULAR THERAPEUTIC METHOD FOR THE TREATMENT OF MUSCULAR DYSTROPHIES” (PONTIFICIA UNIVERSIDAD CATÓLICA DE CHILE, priority 2013, published 2014)

Key:
Format in all cases: in vivo, mouse
[1] = test system: mdx mice; assay: Evans blue dye uptake in tibialis anterior muscle fibers of mdx mice; conditions: exercised mdx mice, 1 mg/kg i.p. 3 times per week for 3 months
Method: FIG. 4. Andrographolide reduced skeletal muscle damage in mdx mice. To augment the extent of muscle fibrosis, 3 months old mdx mice were subjected to an exercise protocol for 3 months. Along this period one group was treated with 1 mg/kg andrographolide or vehicle (i.p. injections 3 time per week, 6 animal per group). […] B) Evans blue dye uptake in tibialis anterior muscle fibers from wild-type (WT), Vehicle-treated mdx and andrographolide-treated mdx mice. Nuclei were labeled with Hoechst. Mice were injected i.p. with 1% Evans blue dye 24 hours before muscle fixation. Bar corresponds to 200 μm. […] Values are expressed as mean±SD of three independent experiments, using eight mice for each experimental condition. (*, P<0.05 relative to WT mice; #, P<0.05 relative to Vehicle-treated mdx mice).
Control or mdx (12 weeks old) male mice of C57BL/10 ScSn strain were studied. The animals were kept at room temperature with a […] night-day cycle and fed with pellets and water ad libitum. Experimental exercise was performed for running the mice in a treadmill for three times per week, 30 minutes each time at 12 m/min during 3 or 4 months (De Luca et al., 2005; De Luca et al., 2003). […]
Animals were injected with Evans Blue dye (1% in PBS) and allowed to stay for 24 hours. […] The percentage of Evans blue dye positive fibers was manually counted in a blinded manner (Straub et al., 1997).

[2] = test system: mdx mice; assay: Treadmill running test (step backs) in mdx mice; conditions: treated mdx mice, treadmill at 15 m/min
Method: FIG. 6. Andrographolide increased skeletal muscle strength and exercise performance in mdx mice. 3 months old Wild Type (WT) and mdx mice were subjected to an exercise protocol for 3 months to augment the extent of muscle fibrosis. Along this period one group was treated with 1 mg/kg andrographolide or vehicle (i.p. injections 3 time per week, 6 animal per group). A) tibialis anterior muscles from wild-type (WT), Vehicle-treated mdx and andrographolide-treated mdx mice were isolated to evaluate isometric specific force (mN/mm2) at different stimulation frequencies (pulses per second, pps). B) Bar graph showing tetanic specific force. Values are represented as percentage of specific isometric force generated by Wild type muscle (*, P<0.05 relative to WT mice; #, P<0.05 relative to Vehicle-treated mdx mice). C) Bar graph showing twitch force (*, P<0.05 relative to WT mice; #, P<0.05 relative to Vehicle-treated mdx mice). D) Mice were subjected to an exercise challenge into the treadmill at 15 meters/min for 5 minutes and the number of stebacks was counted (*, P<0.05 relative to WT mice; #, P<0.05 relative to Vehicle-treated mdx mice).
Mice were subjected to a running test during […] at 15 m/min in a treadmill. The number of times that mice were retarded (step backs) to the first ⅓ of the moving platform was counted (Cabello-Verrugio et al., 2012).

[3] = test system: TGF-β1; assay: TGF-β1 mRNA levels in tibialis anterior muscle of exercised mdx mice, RT-qPCR; conditions: 1 mg/kg i.p. 3 times per week for 3 months, vs vehicle
Method: (§1) FIG. 2. Andrographolide reduced expression and activity of the pro-fibrotic cytokine, TGF-β1, in mdx mice. To augment the extent of muscle fibrosis, 3 months old mdx mice were subjected to an exercise protocol for 3 months. Along this period one group was treated with 1 mg/kg andrographolide or vehicle (i.p. injections 3 time per week, 4 animal per group). A) TGF-β1 mRNA levels, an important pro-fibrotic cytokine, were determined in tibialis anterior muscle from Wild type (WT), Vehicle-Treated mdx and andrographolide-treated mdx mice by RT-qPCR using GAPDH as reference gene. Values correspond to the mean of dCT value±SD of three independent experiments, using four mice for each experimental condition and normalized to WT levels (*, P<0.05 relative to WT mice; #, P<0.05 relative to Vehicle-treated mdx mice). B) Detection of pSmad-2 (an intracellular TGF-β1 mediator) through indirect immunofluorescence analysis in cryosections of tibialis anterior muscle from Vehicle-treated and andrographolide-treated mdx mice. Bar corresponds to 200 μm.
(§2) Control or mdx (12 weeks old) male mice of C57BL/10 ScSn strain were studied. The animals were kept at room temperature with a […] night-day cycle and fed with pellets and water ad libitum. […]

[4] = test system: TGF-β1 canonical signaling pathway (p-Smad 2); assay: pSmad-2 indirect immunofluorescence in tibialis anterior cryosections of mdx mice; conditions: exercised mdx mice, 1 mg/kg i.p. 3 times per week for 3 months
Method: as §1, §2

[5] = test system: mdx mice; assay: Survival and proliferation of grafted EGFP satellite cells in mdx mice, EGFP transgene real time qPCR
Description: Alternatively, it might be possibly that the host muscles have a diminished density of satellite cells, thus, the grafted cells would have no competition for the regenerating muscle fibers or instead the transplanted cells presents a better proliferation performance in the andrographolide treated mice muscles. The first possibility seems to be plausible considering the fibroblast migration data (FIG. 5), while the second hypothesis was excluded since no changes in the number of satellite cells present on isolated EDL myofibers obtained from the same transplanted mice in FIG. 5A were observed, with a mean of 12.5 satellite cells per EDL myofiber, as shown in the FIG. 5B. To test the last possibility, whether grafted cells have improved proliferation rate or survival, we purified satellite cells from the EGFP-transgenic C57BL/6 mice that constitutively expressed the EGFP transgene under the control of the chicken b-actin gene (C57BL/6-Tg(ACTbEGFP)10sba; Act-EGFP). […] The EGFP transgene present in the grafted muscles was detected by real time qPCR in parallel with the mouse b-actin as a housekeeping gene. Since every grafted cell carries only one copy of the EGFP gene (the homozygous EGFP mice die within 2 weeks after birth) the EGFP gene detection constitutes a specific, rapid, and objective quantitation of the grafted cells.

Q: For C=C1CC[C@@H]2[C@](C)(CO)[C@H](O)CC[C@@]2(C)[C@@H]1C/C=C1/C(=O)OC[C@H]1O [andrographolide], which “Evans blue dye uptake in muscle fibers” value [1] is on record?
A: lower Evans blue dye uptake

Q: What about the “number of stepbacks at the treadmill” value [2] of the same compound?
A: decreased

Q: What about the “expression of TGF-β1 (mRNA) in mdx mice” value [3] of the same compound?
A: reduced

Q: What about the “number of positive nuclei for phosphorylated smad2 protein” value [4] of the same compound?
A: reduced

Q: What about the “percentage of grafted cells compared to the fibrotic untreated mice” value ([5]; 15 days post transplantation, EGFP transgene qPCR) of the same compound?
A: 3 times

Q: And the “transplanted cells that die during the first 2 days” value ([5]; EGFP satellite cells grafted in mdx mice, in both cases (treated and untreated))?
A: 60%
